From patent US20140221499A1, “NOVEL RODENT CONTROL AGENTS AND USES THEREOF” (priority 2011, published 2014)

Columns and labels:
Assay type in all cases: cell-based
olfactory TAARs = assay: TAAR reporter gene assay, panel of mouse and rat TAARs in HEK293 cells; details: for TAAR activation: mouse and rat TAARs
Description: (§1) Here, we set out to identify agonists for additional mouse and rat TAARs. We examined odor response profiles using a previously established reporter gene assay based on cAMP-dependent odor transduction in olfactory sensory neurons (40, 42). Briefly, TAAR plasmids were transfected into HEK293 cells along with a cAMP-dependent reporter gene encoding secreted alkaline phosphatase (CRE-SEAP). TAARs were expressed both in unmodified form and as fusion proteins with an N-terminal sequence of bovine rhodopsin (‘Rho tag’) that promotes cell surface expression of some chemosensory receptors (35). Transfected cells were incubated with test chemicals, and phosphatase activity was quantified with a fluorescent substrate as a reporter for TAAR activation. In initial experiments, we tested 38 different odorant mixtures containing 244 structurally diverse test chemicals (2-5 μM) for the ability to activate each mTAAR. Subsequently, we tested 73 amines that included known mTAAR agonists and related chemicals for the ability to activate each rTAAR.
TAAR functional assays. Full Taar coding regions were cloned into pcDNA3.1-(Invitrogen) with or without a 5′ DNA extension of 69 bp encoding the first 20 amino acids of bovine rhodopsin followed by a cloning linker ([…]). Point mutations were introduced in mTAAR7e and mTAAR7f by overlap extension PCR. Functional assays were performed as described (40, 42). Fluorescence was measured on an EnVision plate reader (Perkin Elmer) and SEAP activity graphed as relative fluorescence of a phosphatase substrate.

rTAAR7b = target: T1, rTAAR7b (Rattus norvegicus, UniProt Q923X8); assay: TAAR reporter gene assay, rTAAR7b; parameters: Full Taar coding regions were cloned into pcDNA3.1-(Invitrogen); expressed in transfected cells; host or cells: HEK293
T1 sequence (Q923X8 1-358): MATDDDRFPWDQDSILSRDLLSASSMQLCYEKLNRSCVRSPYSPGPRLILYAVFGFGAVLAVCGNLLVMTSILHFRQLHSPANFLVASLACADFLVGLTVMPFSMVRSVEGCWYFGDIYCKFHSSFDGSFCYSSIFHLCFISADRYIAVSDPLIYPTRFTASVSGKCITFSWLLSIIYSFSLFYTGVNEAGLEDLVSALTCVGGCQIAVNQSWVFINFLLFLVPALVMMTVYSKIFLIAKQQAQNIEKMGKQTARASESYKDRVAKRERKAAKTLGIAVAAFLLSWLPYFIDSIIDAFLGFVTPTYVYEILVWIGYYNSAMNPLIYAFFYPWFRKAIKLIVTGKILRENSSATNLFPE
Description: as §1
(§2) TAAR functional assays. […] Fluorescence was measured on an EnVision plate reader (Perkin Elmer) and SEAP activity graphed as relative fluorescence of a phosphatase substrate.

mTAAR7f = target: T2, mTAAR7f (Mus musculus, UniProt Q5QD08); assay: TAAR reporter gene assay, mTAAR7f; parameters: Full Taar coding regions were cloned into pcDNA3.1-(Invitrogen); Rho tag (first 20 aa of bovine rhodopsin + linker); expressed in transfected cells; host or cells: HEK293
T2 sequence (Q5QD08 1-358): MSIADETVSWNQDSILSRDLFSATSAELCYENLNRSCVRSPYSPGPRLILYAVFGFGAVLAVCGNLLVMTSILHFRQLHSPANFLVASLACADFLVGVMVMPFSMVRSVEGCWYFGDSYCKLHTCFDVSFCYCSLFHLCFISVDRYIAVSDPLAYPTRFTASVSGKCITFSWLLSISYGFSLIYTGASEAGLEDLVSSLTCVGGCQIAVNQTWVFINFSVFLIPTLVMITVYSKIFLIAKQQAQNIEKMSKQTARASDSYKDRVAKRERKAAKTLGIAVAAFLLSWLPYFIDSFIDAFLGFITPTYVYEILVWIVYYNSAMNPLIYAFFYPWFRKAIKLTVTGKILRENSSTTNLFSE
Description: as §1, with “Subsequently, we tested 73 amines that included known mTAAR agonists and related chemicals for the ability to activate each rTAAR.” left out
as §2
TAAR functional assays. […] SEAP activity is measured as fluorescence resulting from dephosphorylation of a substrate, 4-methylumbelliferyl phosphate. Fluorescence values were obtained using an EnVision plate reader (Perkin Elmer) and are reported directly without normalization. […]

rTAAR7h = target: T3, rTAAR7h (Rattus norvegicus, UniProt Q923Y4); assay: TAAR reporter gene assay, rTAAR7h; parameters: Full Taar coding regions were cloned into pcDNA3.1-(Invitrogen); Rho tag (first 20 aa of bovine rhodopsin + linker); expressed in transfected cells; host or cells: HEK293
T3 sequence (Q923Y4 1-358): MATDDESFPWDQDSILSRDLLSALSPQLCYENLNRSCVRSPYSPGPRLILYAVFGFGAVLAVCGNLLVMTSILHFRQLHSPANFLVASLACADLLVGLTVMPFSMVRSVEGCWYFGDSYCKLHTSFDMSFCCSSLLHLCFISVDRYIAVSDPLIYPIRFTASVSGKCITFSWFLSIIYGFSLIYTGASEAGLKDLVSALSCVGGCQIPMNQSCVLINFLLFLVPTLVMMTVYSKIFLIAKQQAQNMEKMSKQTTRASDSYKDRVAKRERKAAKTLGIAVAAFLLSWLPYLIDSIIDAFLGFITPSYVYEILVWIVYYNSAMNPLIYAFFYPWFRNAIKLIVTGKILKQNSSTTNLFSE
Description: as §1, §2

| SMILES | activation of other olfactory TAARs with identified ligands (olfactory TAARs; 10 μM (FIG. 2D)) | rTAAR7b activation (rTAAR7b) | TAAR activation (olfactory TAARs) | mTAAR7f activation (mTAAR7f) | rTAAR7h activation (rTAAR7h) |
| --- | --- | --- | --- | --- | --- |
| NCCc1ccccc1 [2-phenylethylamine] | did not similarly activate | – | – | – | – |
| CN(C)CCc1ccccc1 [ligand 6, N,N-dimethyl-2-phenylethylamine] | – | not | activated different TAAR7 paralogs | not | activated |
| CN(C)C1CCCCC1 [ligand 10, N,N-dimethylcyclohexylamine] | – | activated | activated different TAAR7 paralogs | activated | not |
